{"source": "patent US20190315823A1", "about": "“SMALL CATIONIC ANTI-BIOFILM AND IDR PEPTIDES” (priority 2013, published 2019)", "key": {"[1]": {"system": "Pseudomonas aeruginosa (Pa) biofilm", "conditions": "P. aeruginosa; de la Fuente-Núñez 2012; cited from earlier work"}, "P. aeruginosa": {"system": "P. aeruginosa", "conditions": "de la Fuente-Núñez 2012; cited from earlier work"}, "[2]": {"system": "Klebsiella pneumoniae (Kp) biofilm", "type": "cell-based", "conditions": "peptide 10 μg/ml", "procedure": "(§1) Methods of assessment of anti-biofilm activity—Biofilm formation was initially analyzed using a static abiotic solid surface assay as described elsewhere (de la Fuente-Nunez et al., 2012). Dilutions (1/100) of overnight cultures were incubated in BM2 biofilm-adjusted medium [62 mM potassium phosphate buffer (pH 7), 7 mM (NH4)2SO4, 2 mM MgSO4, 10 μM FeSO4, 0.4% (wt/vol) glucose, 0.5% (wt/vol) Casamino Acids], or a nutrient medium such as Luria Broth, in polypropylene microtiter plates (Falcon, United States) in the absence (control) or presence of peptide. Peptide was added at time zero (prior to adding the diluted, overnight cultures) in varying concentrations, and the decrease in biofilm formation was recorded at 22-46 h for most bacteria. Planktonic cells were removed, biofilm cells adhering to the side of the tubes were stained with crystal violet, and absorbance at 595 nm was measured using a microtiter plate reader (Bio-Tek Instruments Inc., United States). Some peptides were screened against two Gram negative organisms, P. aeruginosa and K. pneumoniae using a Bioflux apparatus (AutoMate Scientific, Berkeley, Calif.; http://www.autom8.com/bioflux_biofilm.html), which allows for the high-throughput, real-time analysis of biofilms."}, "[3]": {"system": "Pseudomonas aeruginosa (Pa) biofilm", "experiment": "static abiotic solid surface (microtiter, crystal violet) / Bioflux biofilm inhibition screen", "type": "cell-based", "conditions": "peptide 10 μg/ml", "procedure": "FIG. 1. Identification of new anti-biofilm peptides active against P. aeruginosa using the microtiter plate screening method with crystal violet staining. […] As a control peptide 1037 was utilized [de la Fuente Nunez et al. 2011].\nas §1"}, "P. aeruginosa biofilms": {"system": "P. aeruginosa biofilms", "procedure": "Peptides and various conventional antibiotics were analyzed by checkerboard titration into microtiter trays using CLSI methods (Wiegand, I., K. Hilpert, and R. E. W. Hancock. 2008. Nature Protocols 3:163-175), bacteria added and, after overnight incubation at 37° C., the residual biofilm assessed by the crystal violet method mentioned in the body of the grant, with an A595 of 0.2 considered as 100% biofilm inhibition. The effects of the peptide in reducing the minimal biofilm inhibitory concentration (MBIC) of the antibiotic and vice versa were assessed using the Fractional Inhibitory Concentration (FIC) method whereby ΣFTC=FICA+FICB=(CA/MICA)+(CB/MICB), where MBICA and MBICB are the MBICs of peptide A and antibiotic B alone, respectively, and CA and CB (expressed in μg/ml) are the MICs of the drugs in combination. This conventional clinical microbiology assay is interpreted as follows"}, "[4]": {"system": "human peripheral blood mononuclear cells", "type": "cell-based", "procedure": "FIG. 18. Lack of cytotoxicity of immunomodulatory peptides against human peripheral blood mononuclear cells as determined by the low release of cytosolic lactate dehydrogenase.\nVenous blood (20 ml) from healthy volunteers was collected in Vacutainer® collection tubes containing sodium heparin as an anticoagulant (Becton Dickinson, Mississauga, ON) in accordance with UBC ethical approval and guidelines. Blood was diluted 1:1 with complete RPMI 1640 medium and separated by centrifugation over a Ficoll-Paque® Plus (Amersham Biosciences, Piscataway, N.J., USA) density gradient. White blood cells were isolated from the buffy coat, washed twice in RPMI 1640 complete medium, and the number of peripheral blood mononuclear cells (PBMC) was determined by Trypan blue exclusion. PBMC (5×10^5) were seeded into 12-well tissue culture dishes (Falcon; Becton Dickinson) at 0.75 to 1×10^6 cells/ml at 37° C. in 5% CO2. The above conditions were chosen to mimic conditions for circulating blood monocytes entering tissues at the site of infection via extravasation.\nFollowing incubation of the cells under various treatment regimens, the tissue culture supernatants were centrifuged at 1000×g for 5 min, then at 10,000×g for 2 min to obtain cell-free samples. […]\nCytotoxicity was assessed using the Lactate dehydrogenase assay. […] Amount of colour formed is detected as increased absorbance measured at […]. […]"}, "C. elegans": {"system": "C. elegans", "experiment": "C. elegans survival, uninfected (peptide toxicity)", "conditions": "peptide 20 μg/ml", "procedure": "The C. elegans survival assay was carried out as previously described (Brackman et al., 2011). […] 0.5 ml of this suspension of nematodes was transferred to the wells of a 24-well microtiter plate. An overnight bacterial culture was centrifuged, resuspended in the assay medium, and standardized to 10^8 CFU/ml. Next, 250 μl of this standardized suspension were added to each well, while 250 μl of sterile medium was added to the […]. Peptides were added to the test wells at a final concentration of 20 μg/ml. The assay plates were incubated at 25° C. for up to 2 days. The fraction of dead worms was determined by counting the number of dead worms and the total number of worms in each well, using a dissecting microscope. Peptides were tested at least four times in each assay, and each assay was repeated at least three times (n≥12)."}, "S. aureus biofilm": {"system": "S. aureus biofilm", "type": "cell-based", "conditions": "concentration that reduced biofilm growth by 50%"}, "P. aeruginosa biofilm": {"system": "P. aeruginosa biofilm", "type": "cell-based", "conditions": "concentration that reduced biofilm growth by 50%"}, "G. mellonella": {"system": "G. mellonella", "experiment": "G. mellonella survival, uninfected (peptide toxicity)", "type": "in vivo", "conditions": "peptide 20 μg/10 μl", "procedure": "In brief, prior to injection in G. mellonella, bacterial cells were washed with PBS and then diluted to either 10^4 or 10^5 CFU per 10 μl. A Hamilton syringe was used to inject 10 μl in the G. mellonella last left proleg. The peptides (20 μg/10 μl) were administered by injecting 10 μl into a different proleg within 1 h after injecting the bacteria. Two control groups were used: the first group included uninfected larvae injected with PBS to monitor killing due to physical trauma; the second group included uninfected larvae receiving no treatment at all. Results from experiments in which one or more larvae in either control group died were discarded and the experiments were repeated. To evaluate the toxicity of the peptides, uninfected larvae were injected with peptides. Larvae were placed in the dark at 37° C. and were scored as dead or alive 24 h and 48 h post-infection. […] At least 20 larvae were injected for each treatment. For each treatment, data from at least six independent experiments were combined."}, "[5]": {"system": "methicillin resistant S. aureus (Sa) biofilm", "type": "cell-based, Staphylococcus aureus", "conditions": "peptide 5 μg/ml"}, "[6]": {"system": "Pseudomonas aeruginosa PA14 and PAO1 and Burkholderia cenocepacia", "experiment": "swarming and surfing motility", "type": "cell-based", "from_the_text": "Motility is strongly involved in the virulence of bacteria since it plays an important role in the attachment of bacteria to surfaces, including those in the body and on indwelling medical devices, and in colonization of these surfaces and biofilm formation. P. aeruginosa is known to utilize at least 4 different types of motility: (a) flagellum-mediated swimming in aqueous environments and at low agar concentrations (<0.3% agar), (b) type IV pilus-mediated twitching on solid surfaces or interfaces, (c) swarming on semi-solid media (0.5-0.7% agar) in poor nitrogen (N) sources such as amino acids (AA) and (d) surfing on low agar concentrations containing mucin.\nSwarming motility is a social phenomenon (a complex adaptation) involving the coordinated and rapid movement of bacteria across a semi-solid (viscous) surface, and is widespread among flagellated pathogenic bacteria. […]\nThis was independent of bacterial killing (antimicrobial peptide action measured by MIC) since these peptides were able to inhibit the swarming of Burkholderia cenocepacia, which as mentioned above is completely resistant to all cationic antimicrobial peptides due to its altered outer membrane."}}, "note": "Like-named read-outs stand apart in the source and are kept apart here. Peptide text beside a SMILES is read from it."}
{"compound": "CC[C@H](C)[C@H](NC(=O)[C@H](CCCNC(=N)N)NC(=O)[C@H](Cc1ccccc1)NC(=O)[C@H](CCCNC(=N)N)NC(=O)[C@@H](N)CCCCN)C(=O)N[C@@H](CCCNC(=N)N)C(=O)N[C@H](C(=O)N[C@@H](CCCNC(=N)N)C(=O)N[C@H](C(N)=O)C(C)C)C(C)C", "note": "[Peptide 1037] (H-KRFRIRVRV-NH2; N-terminus assumed)", "values": [{"measurement": "anti-biofilm activity IC50", "setting": "[1]", "result": 5, "unit": "µg/mL"}, {"measurement": "antimicrobial activity MIC", "setting": "P. aeruginosa", "result": 304, "unit": "µg/mL"}]}
{"compound": "CC[C@H](C)[C@H](N)C(=O)N[C@@H](CC(C)C)C(=O)N[C@@H](CCCNC(=N)N)C(=O)N[C@@H](Cc1c[nH]c2ccccc12)C(=O)N1CCC[C@H]1C(=O)N[C@@H](Cc1c[nH]c2ccccc12)C(=O)N1CCC[C@H]1C(=O)N[C@@H](Cc1c[nH]c2ccccc12)C(=O)N[C@@H](CCCNC(=N)N)C(=O)N[C@@H](CCCNC(=N)N)C(=O)N[C@@H](CCCCN)C(N)=O", "note": "[MX226, reference compound] (H-ILRWPWPWRRK-NH2; N-terminus assumed)", "values": [{"measurement": "% Biofilm Inhibition Kp", "setting": "[2]", "result": 18, "unit": "%"}, {"measurement": "% Biofilm Inhibition Pa", "setting": "[3]", "result": 18, "unit": "%"}]}
{"compound": "CC[C@@H](C)[C@@H](NC(=O)[C@@H](C)NC(=O)[C@@H](CCCNC(=N)N)NC(=O)[C@@H](Cc1c[nH]c2ccccc12)NC(=O)[C@@H](CCC(N)=O)NC(=O)[C@H](N)C(C)C)C(=O)N[C@H](CCCNC(=N)N)C(=O)N[C@@H](C(=O)N[C@H](CCCNC(=N)N)C(=O)N[C@@H](C(=O)N[C@@H](C(=O)N[C@H](CCCNC(=N)N)C(N)=O)[C@H](C)CC)C(C)C)C(C)C", "note": "[DJK5]", "values": [{"measurement": "MIC for complete inhibition of Pseudomonas aeruginosa", "setting": "P. aeruginosa biofilms; biofilms", "result": 1, "unit": "µg/mL"}, {"measurement": "Minimal Biofilm Inhibitory Concentration (MBIC)", "setting": "P. aeruginosa biofilms; biofilms", "result": 0.5, "unit": "µg/mL"}, {"measurement": "% Biofilm Inhibition Kp", "setting": "[2]", "result": 99.8, "unit": "%"}, {"measurement": "% Biofilm Inhibition Pa", "setting": "[3]", "result": 99.7, "unit": "%"}]}
{"compound": "CC[C@H](C)[C@H](NC(=O)[C@H](CC(C)C)NC(=O)[C@@H](NC(=O)[C@H](CCCNC(=N)N)NC(=O)[C@@H](NC(=O)[C@@H](NC(=O)[C@H](CCCNC(=N)N)NC(=O)[C@H](CCCNC(=N)N)NC(=O)[C@@H](N)C(C)C)[C@@H](C)CC)C(C)C)C(C)C)C(=O)N[C@@H](CCCNC(=N)N)C(=O)N[C@@H](Cc1c[nH]c2ccccc12)C(=O)N[C@@H](C)C(N)=O", "note": "[HE8] (H-VRRIVRVLIRWA-NH2)", "values": [{"measurement": "Notes (toxicity)", "setting": "[4]", "result": "Toxic"}]}
{"compound": "CC[C@H](C)[C@H](NC(=O)[C@H](CCCNC(=N)N)NC(=O)[C@@H](NC(=O)[C@H](C)NC(=O)[C@@H](NC(=O)[C@@H](NC(=O)[C@H](CC(C)C)NC(=O)[C@H](CCCNC(=N)N)NC(=O)[C@@H](N)C(C)C)[C@@H](C)CC)C(C)C)C(C)C)C(=O)N[C@@H](Cc1c[nH]c2ccccc12)C(=O)N[C@@H](CCCNC(=N)N)C(=O)N[C@@H](CCCNC(=N)N)C(N)=O", "note": "[Peptide 1018] (H-VRLIVAVRIWRR-NH2)", "values": [{"measurement": "C. elegans survival, No infection", "setting": "C. elegans; 24 h", "result": "97 ± 4", "unit": "%"}, {"measurement": "C. elegans survival, No infection", "setting": "C. elegans; 48 h", "result": "88 ± 9", "unit": "%"}, {"measurement": "Minimal Biofilm Inhibitory Concentration (MBIC)", "setting": "P. aeruginosa biofilms; compound alone, P. aeruginosa", "result": 24, "unit": "µg/mL"}, {"measurement": "MBIC50 S. aureus", "setting": "S. aureus biofilm", "result": 20, "unit": "µg/mL"}, {"measurement": "MBIC50 P. aeruginosa", "setting": "P. aeruginosa biofilm", "result": 2.5, "unit": "µg/mL"}, {"measurement": "G. mellonella survival, No infection", "setting": "G. mellonella; 24 h", "result": "90 ± 14", "unit": "%"}, {"measurement": "G. mellonella survival, No infection", "setting": "G. mellonella; 48 h", "result": "90 ± 14", "unit": "%"}, {"measurement": "% Biofilm Inhibition Sa", "setting": "[5]", "result": 67, "unit": "%"}, {"measurement": "% Biofilm Inhibition Kp", "setting": "[2]", "result": 99, "unit": "%"}, {"measurement": "% Biofilm Inhibition Pa", "setting": "[3]", "result": 99, "unit": "%"}]}
{"compound": "polymyxin B", "values": [{"measurement": "swarming motility", "setting": "[6]; low concentrations", "result": "does not have anti-swarming or anti-surfing activity"}, {"measurement": "surfing motility", "setting": "[6]; mucin-containing plates", "result": "does not have anti-swarming or anti-surfing activity"}]}
